Experimental data reported in patent US5541169A, “Azoxy compound” (Kowa Company, Ltd., priority 1992, dated 1996).
≈ marks a conversion by molar mass, not a printed value.

Experiments:
Candida albicans = assay: Minimum inhibitory concentration, agar plate dilution method (Sabouraud dextrose medium); type: cell-based; settings: C.a.
Description: (§1) The minimum inhibition concentration was assayed by the agar plate dilution method using Sabouraud dextrose medium.

Trichophyton rubrum = assay: as above; type: cell-based; settings: T.r.
Description: as §1

Microsporum canis = assay: as above; type: cell-based; settings: M.c.
Description: as §1

[1] = test system: Trichophyton mentagrophytes; assay: as above; type: cell-based; settings: T.m.
Description: as §1

[2] = Stability in ethanol (residual ratio by HPLC); type: physicochemical; settings: 50% ethanol, 50% ethanol solution, 0.01%; for remaining at 2160 h: 3 months; for remaining at 288 h: 12 days
Description: The residual ratio was determined under the following conditions by the HPLC method.
*Measured in a 50% ethanol solution (sample concentration: 0.01%)
Column: STR ODSM 4.6 × 150 mm
Injection volume: 40 μl
Mobile phase: CH3 CN:H2 O (1:1)
Temperature: room temperature

[3] = prior-art compounds; cited from earlier work
fungi = settings: prior-art compounds; cited from earlier work

Compound	MIC (Candida albicans) [µg/mL]	MIC (Trichophyton rubrum) [µg/mL]	MIC (Microsporum canis) [µg/mL]	MIC [1] [µg/mL]	remaining at 2160 h ([2]; 4° C.) [%]	remaining at 2160 h ([2]; 25° C.) [%]	remaining at 2160 h ([2]; 40° C.) [%]	remaining at 2160 h ([2]; pH 4, pH 4, 40° C.) [%]	remaining at 2160 h ([2]; pH 6, pH 6, 40° C.) [%]	remaining at 2160 h ([2]; pH 8, pH 8, 40° C.) [%]	remaining at 288 h ([2]; 4° C.) [%]	remaining at 288 h ([2]; 25° C.) [%]	remaining at 288 h ([2]; 40° C.) [%]	remaining at 288 h ([2]; pH 4, pH 4, 40° C.) [%]	remaining at 288 h ([2]; pH 6, pH 6, 40° C.) [%]	remaining at 288 h ([2]; pH 8, pH 8, 40° C.) [%]	stability (in words) [3]	antifungal activity (in words) (fungi)
CC(=C[N+]([O-])=NC(C)COCC#CI)c1ccc(Cl)cc1 (centres unmarked) [Example 1, 2-(2-(4-chlorophenyl)-1-propenyl-ONN-azoxy)-1-(3-iodo-2-propynyloxy)propan]	50 (≈ 119 µM)	0.8 (≈ 1.91 µM)	1.6 (≈ 3.82 µM)	0.4 (≈ 0.955 µM)														
CC(=C[N+]([O-])=NC(C)C(C)OCC#CI)c1ccccc1Cl (centres unmarked) [Example 2, 3-(2-(2-chlorophenyl)-1-propenyl-ONN-azoxy)-2-(3-iodo-2-propynyloxy)butane]	50 (≈ 116 µM)	1.6 (≈ 3.7 µM)	1.6 (≈ 3.7 µM)	1.6 (≈ 3.7 µM)														
CC(O)C(C)N=[N+]([O-])c1ccc(OCC#CI)cc1 (centres unmarked) [Example 11, 3-(4-(3-iodo-2-propynyloxy)phenyl-ONN-azoxy)-2-butanol]	6.3 (≈ 16.8 µM)	1.6 (≈ 4.28 µM)	0.8 (≈ 2.14 µM)	1.6 (≈ 4.28 µM)														
CCCC/C=C/[N+]([O-])=N[C@@H](C)C(C)=O [KA-7367A]																	unstable	excellent antifungal activity

Further lines, with some results ahead:

MIC (Candida albicans) [µg/mL]	MIC (Trichophyton rubrum) [µg/mL]	MIC (Microsporum canis) [µg/mL]	MIC [1] [µg/mL]	remaining at 2160 h ([2]; 4° C.) [%]	remaining at 2160 h ([2]; 25° C.) [%]	remaining at 2160 h ([2]; 40° C.) [%]	remaining at 2160 h ([2]; pH 4, pH 4, 40° C.) [%]	remaining at 2160 h ([2]; pH 6, pH 6, 40° C.) [%]	remaining at 2160 h ([2]; pH 8, pH 8, 40° C.) [%]	remaining at 288 h ([2]; 4° C.) [%]	remaining at 288 h ([2]; 25° C.) [%]	remaining at 288 h ([2]; 40° C.) [%]	remaining at 288 h ([2]; pH 4, pH 4, 40° C.) [%]	remaining at 288 h ([2]; pH 6, pH 6, 40° C.) [%]	remaining at 288 h ([2]; pH 8, pH 8, 40° C.) [%]	Compound	stability (in words) [3]	antifungal activity (in words) (fungi)
12.5 (≈ 31.2 µM)	1.6 (≈ 4 µM)	1.6 (≈ 4 µM)	0.8 (≈ 2 µM)	99.6	99.3	92.7	101	101	83.6							C[C@H](N=[N+]([O-])C=Cc1ccc(OCC#CI)cc1)[C@@H](C)O [5 (2R), 2(R)-3(S)-3-(4-(3-iodo-2-propynyloxy)styryl-ONN-azoxy)-2-butanol]		
6.3 (≈ 15.7 µM)	1.6 (≈ 4 µM)	1.6 (≈ 4 µM)	0.8 (≈ 2 µM)	99.8	97.4	86.1	100	99.1	74.2							C[C@H](O)[C@H](C)N=[N+]([O-])C=Cc1ccc(OCC#CI)cc1 [5 (2S), 2(S)-3(S)-3-(4-(3-iodo-2-propynyloxy)styryl-ONN-azoxy)-2-butanol]		
										99.3	95.8	96.6	0	79.7	91.4	CC(=NO)[C@H](C)N=[N+]([O-])/C=C/c1ccc(OCC#CI)cc1 [Control, reference compound]		
25 (≈ 91.1 µM)	0.2 (≈ 0.729 µM)	0.2 (≈ 0.729 µM)														C#CCOc1ccc(C=C[N+]([O-])=NC(C)C(C)O)cc1 (centres unmarked) [Example 3, 3-(4-(2-propynyloxy)styryl-ONN-azoxy)-2-butanol]		
6.3 (≈ 16.8 µM)	1.6 (≈ 4.28 µM)	0.8 (≈ 2.14 µM)	1.6 (≈ 4.28 µM)	100	99.4	100	100	99.9	100	100	102	99.8	99.7	100	100	C[C@H](N=[N+]([O-])c1ccc(OCC#CI)cc1)[C@@H](C)O [Example 17, 2(R)-3(S)-3-(4-(3-iodo-2-propynyloxy)phenyl-ONN-azoxy)-2-butanol]		
